Here are results for 2 substances from article PMC12136225, “Antinociceptive effects of intrathecal Neuropeptide B/W receptor 1 agonists in mouse acute nociception, peripheral neuropathy, and inflammatory pain models” (Research Square, 2025).

Data set [1] has as its system C57BL/6 mice. The data set is described as follows: Acute nociception hot plate latency assay. Type of data set: in vivo, mouse. To be noted: for Duration of significant antinociception after administration / Onset of significant antinociceptive effect / Time of peak antinociceptive effect: i.t. 56 and 100 μg, hot plate, n = 8; for ED50 Hot Plate Latency: i.t. injection, 1 hour following treatment, 52 °C hot plate, % MPE, male and female mice, n = 8, 95% confidence intervals in parentheses. The procedure: (§1) NPB-23 ([…]NH2) and RTIBW-16 ([desaminoTrp^1]-Tyr-Lys-Ava-Ava-Ava-Gly-Arg-Ala-Ala-Gly-Leu-Leu-NH2, compound 30 in Ref. [27]) were synthesized as previously reported. RTIBW-16 and NPB-23 were administered via i.t. injections between L4 and L5 vertebrae with an injection volume of 5 μL. The dosing of these compounds was based on previous literature.
(§2) Intrathecal injections were conducted as previously described; injections occurred between the L4 and L5 vertebrae. Briefly, an ‘injection catheter’ made from a 27-gauge needle and polyethylene (PE) 20 tubing was connected to a 10 μl Hamilton syringe. Injections occurred over 5 sec and were generally accompanied by a hind paw twitch response. A 100% motor recovery rate was observed.
Acute nociception measurements were collected via the hot plate latency assay as previously described. Mice were placed on a heated (52 °C) enclosed Hot Plate Analgesia Meter (Columbus Instruments, Columbus, OH). The latency to jump/lick/shake/flick a hind paw was recorded. A 30 second cut-off was used to prevent tissue damage. Latencies were recorded prior to administration of compounds and at each time point over the 24-hour study (0.5, 1, 1.5, 2, 3, 4, 6, 24 hr time points). Latency measurements were taken by observers blinded to treatment conditions. Mice were given a 1-week washout period between test days.
(§3) Hot plate data were converted to percent maximum possible effect (% MPE) with the following equation: ([experimental test value – baseline value) / (30 sec – baseline value)] * 100). Behavioral data were analyzed using a repeated measures two-way analysis of variance (ANOVA) for RTIBW-16 and NPB-23 treatment time course analysis with time as one factor and compound dosing as a second factor [35]. Individual treatment effects were analyzed using repeated measures one-way ANOVA. Dunnett’s test was used for post hoc analysis following a significant ANOVA result. Two tailed, paired t-tests were conducted to compare the magnitude of baseline von Frey measurements to their respective pre-paclitaxel and pre-carrageenan measurements. A p value of < 0.05 was considered statistically significant. As no significant sex effect was observed, male and female data were collapsed. […] When the mean effect of a drug in an experiment was greater than 50%, the ED50 values and corresponding 95% confidence limits were calculated using linear regression, where slopes were allowed to vary. The computer program GraphPad Prism version 10.3 (GraphPad Software Inc.; San Diego, CA) was used in the statistical analyses. Data are plotted as mean ± the standard error of the mean.

The subject of the next data set is NPBWR1. The settings on record: NPB-23 ref 24, 25; RTIBW-16 ref 27; cited from earlier work. The text has this: (§4) So far, behavioral studies have mostly been conducted in rats and relied on exogenous administration of endogenous ligands. NPB is a 29 amino acid peptide with a bromine at the C-6 position of the indole moiety in the N-terminal tryptophan (Trp). […] NPW exists in two functional peptide forms consisting of 23 and 30 amino acid residues.

In data set [2] the test system is C57BL/6 mice. The data set is described as follows: Carrageenan inflammatory pain model, von Frey mechanical allodynia. Type of data set: in vivo, mouse. To be noted: for Attenuation of carrageenan-induced mechanical allodynia: i.t. 100 μg and 56 μg; for Attenuation of carrageenan-induced mechanical allodynia / Time of delayed-onset partial mechanical allodynia attenuation after administration: von Frey, n = 8; for ED50 Carrageenan von Frey: i.t. injection, 1 hour following treatment, carrageenan-induced mechanical allodynia, n = 8, 95% confidence intervals in parentheses; for Time of delayed-onset partial mechanical allodynia attenuation after administration: i.t. lower doses of 10 μg and 5.6 μg. As to the method: as §1
(§5) Paclitaxel was purchased from Bio-Techne (Minneapolis, MN) and was administered in a vehicle solution containing a 1:1:18 ratio of ethanol (100%), polyethylene glycol monooleyl ether (Tokyo Chemical Industry America; Portland, OR), and saline (0.9% w/v NaCl) as previously described. A dosing cycle of paclitaxel consisted of a total of four intraperitoneal (i.p.) paclitaxel injections (8 mg/kg per injection, given every other day. Carrageenan was purchased from Sigma-Aldrich (St. Louis, MO) and made into a 0.3% w/v solution in saline for injections.
as §2
After use in the hot plate latency assay, the same cohort was then used for the carrageen model of inflammatory pain. Mice were given at least a one-week washout period between experimental use. Mice were habituated to the von Frey apparatus and were assessed using the same “up-down” method as described earlier. The carrageenan inflammatory pain model was induced as previously described. Briefly, an intraplantar injection of 0.3% w/v carrageenan in a 20 μL volume using a 27-gauge needle was administered into the right hind paw. […]. The left paw served as an internal control for each subject. The change in paw thickness from baseline was assessed with digital caliper measurements. Paw thickness and von Frey responses were measured over a 24-hour time course (1, 2, 3, 4, 6, 24 hr timepoints), with paw thickness measurements occurring immediately after the von Frey assay at each time point. Mechanical allodynia assessments and paw thickness measurements were conducted by observers blinded to treatment conditions. Intraplantar administration of carrageenan and digital caliper measurement of paw edema were conducted with mice restrained utilizing a plexiglass mouse restrainer (Stoelting Co., Wood Dale, IL)
as §3

The subject of data set [3] is C57BL/6 mice. The data set is described as follows: Paclitaxel CIPN model, von Frey mechanical allodynia. The format is in vivo, mouse. The settings on record: for Duration of reversal of mechanical allodynia following treatment: i.t. 100 and 56 μg, paclitaxel CIPN, n = 8. The procedure: as §1, §5, §2
To assess mechanical allodynia within CIPN, mice were habituated to the von Frey testing environment for four consecutive days in 30-minute sessions prior to the first testing session. Baselines were measured as previously described using von Frey monofilaments (North Coast Medical; Morgan Hills, CA) to establish responses to light mechanical touch before paclitaxel or vehicle administration. During testing mice were placed atop a wire mesh screen with spaces 0.5 mm apart. Mice were singly placed beneath an inverted wire mesh basket (8 cm diameter, 15 cm height) and allowed to habituate to the apparatus for 30 minutes before testing. The von Frey assay utilizes a series of calibrated monofilaments (0.4–4.0 g stimulus intensity), applied to the left and right plantar surface of the hind paws utilizing the “up-down” method. […] Responses from the von Frey assay were measured over a 24-hour time course (1, 2, 3, 4, 6, 24 hr timepoints). […]
Hot plate data were converted to percent maximum possible effect (% MPE) with the following equation: ([experimental test value – baseline value) / (30 sec – baseline value)] * 100). Behavioral data were analyzed using a repeated measures two-way analysis of variance (ANOVA) for RTIBW-16 and NPB-23 treatment time course analysis with time as one factor and compound dosing as a second factor [35]. Individual treatment effects were analyzed using repeated measures one-way ANOVA. […]

The subject of data set [4] is C57BL/6 mice. The data set is described as follows: Carrageenan-induced paw edema (paw thickness, digital caliper). Type of data set: in vivo, mouse. The settings on record: i.t., 1 hour time point, change in paw thickness, n = 8. The procedure: as §1
Paclitaxel was purchased from Bio-Techne (Minneapolis, MN) and was administered in a vehicle solution containing a 1:1:18 ratio of ethanol (100%), polyethylene glycol monooleyl ether (Tokyo Chemical Industry America; Portland, OR), and saline (0.9% w/v NaCl) as previously described. […]
After use in the hot plate latency assay, the same cohort was then used for the carrageen model of inflammatory pain. […] Mice were habituated to the von Frey apparatus and were assessed using the same “up-down” method as described earlier. […] The change in paw thickness from baseline was assessed with digital caliper measurements. Paw thickness and von Frey responses were measured over a 24-hour time course (1, 2, 3, 4, 6, 24 hr timepoints), with paw thickness measurements occurring immediately after the von Frey assay at each time point. […]

For data set [5] the following is noted: cited from earlier work.
Text: as §4

As for “Trp-Tyr-Lys-Pro-Ala-Ala-Gly-His-Ser-Ser-Tyr-Ser-Val-Gly-Arg-Ala-Ala-Gly-Leu-Leu-Ser-Gly-Leu-NH2 [NPB-23, truncated human NPB without a bromine at the N-terminal Trp residue; NPBWR1 agonist]”, in the data set on C57BL/6 mice [1], the “Duration of significant antinociception after administration” value was “up to 6 hours”, the “Onset of significant antinociceptive effect” value came to 0.5 h, the “Time of peak antinociceptive effect” value is 1.5 h and the “ED50 Hot Plate Latency” value is on record as 18.36 (10.17–33.15) μg. The “In vitro NPBWR1 agonist activity compared with NPB” value in the data set on NPBWR1 is listed as “equipotent”. For the same substance, in the data set on C57BL/6 mice [2], the “Attenuation of carrageenan-induced mechanical allodynia” value is “robust mechanical allodynia blockade”, the “ED50 Carrageenan von Frey” value is 19.92 (13.52–29.35) μg and the “Time of delayed-onset partial mechanical allodynia attenuation after administration” value was found to be 2 h. In the data set on C57BL/6 mice [3] (von Frey), the “Duration of reversal of mechanical allodynia following treatment” value is given as “up to 2 hours”. For the same substance, the “ED50 Paclitaxel CIPN von Frey” value in the data set with C57BL/6 mice [3] (i.t. injection, 1 hour following treatment, reversal of paclitaxel-induced mechanical allodynia, n = 8, 95% confidence intervals in parentheses) is listed as 45.06 (33.91–59.88) μg. Further, the “Reversal of CIPN mechanical allodynia at 1 hour timepoint” value in the data set on C57BL/6 mice [3] (i.t., von Frey, 1 hour) is “reverse the CIPN mechanical allodynia back to the baseline”. In addition, the “Effect on carrageenan-induced paw edema (initial swelling) compared to vehicle” value with C57BL/6 mice [4] is on record as “significantly reduced the magnitude of initial swelling”.
Regarding “[desaminoTrp^1]-Tyr-Lys-Ava-Ava-Ava-Gly-Arg-Ala-Ala-Gly-Leu-Leu-NH2 [RTIBW-16]”, in the data set with C57BL/6 mice [1], the “Duration of significant antinociception after administration” value stood at 2 h, the “Onset of significant antinociceptive effect” value turned out to be 0.5 h, the “Time of peak antinociceptive effect” value worked out at 1.5 h and the “ED50 Hot Plate Latency” value was 42.86 (25.09–73.21) μg. Also, the “Metabolic stability in rat plasma” value in data set [5] was “improved metabolic stability in rat plasma”. Besides, in the data set on C57BL/6 mice [2], the “Attenuation of carrageenan-induced mechanical allodynia” value is recorded as “fully attenuated peak carrageenan-induced mechanical allodynia”, the “ED50 Carrageenan von Frey” value is given as 29.47 (21.71–40.00) μg and the “Time of delayed-onset partial mechanical allodynia attenuation after administration” value was 3 h. For the same substance, the “Duration of reversal of mechanical allodynia following treatment” value in the data set with C57BL/6 mice [3] (von Frey) is recorded as “up to 3 hours”. Moreover, the “Effect on carrageenan-induced paw edema (initial swelling) compared to vehicle” value in the data set with C57BL/6 mice [4] was “significantly reduced the magnitude of initial swelling”.
